Laboratory results from patent publication US20260055079A1, “PHTHALAZINONE COMPOUNDS AS PARP7 INHIBITORS” (AZKARRA THERAPEUTICS, INC., priority 2022, published 2026).
Read-outs that look alike come from different tables or passages of the source.

Legend:
His-GST-PARP7 = His-GST-PARP7 (Homo sapiens (Human), UniProt Q7Z3E1); assay: PARP7 biochemical assay; settings: read-out: PARP7 IC50
PARP1 = PARP1 (Homo sapiens (Human), UniProt P09874); assay: PARP1 biochemical assay
PARP2 = PARP2 (Homo sapiens (Human), UniProt Q9UGN5); assay: PARP2 biochemical assay; settings: read-out: PARP2 IC50
[1] = system: NCI-H1373 (human lung adenocarcinoma) cells; assay: Cell proliferation assay (CellTiter-Glo), NCI-H1373; type: cell-based; settings: 6 days, CellTiter-Glo, read-out: NCI-H1373 GI50
[2] = system: HARA (human lung squamous cell carcinoma) cells; assay: Cell proliferation assay (CellTiter-Glo), HARA; type: cell-based; settings: 6 days, CellTiter-Glo, read-out: HARA GI50
STING, pTBK1, pIRF3 = assay: STING, pTBK1 and pIRF3 western blot in CT-26 cells; type: cell-based, mouse
[3] = system: CT26 (mouse colon adenocarcinoma) cells; assay: Cell proliferation assay (CellTiter-Glo), CT26; type: cell-based; settings: Mus musculus, CT26, 144 h, 6 days
secreted IFN-β = assay: Interferon-β ELISA, CT-26 cells; type: cell-based, mouse
Description: CT-26 cells were seeded into a 6-well plate. After 24 h, the growth media was replaced, and cells were treated with inhibitors. After treatment, growth media was harvested and assayed with PBL Verikine Mouse IFN-β ELISA kit following the manufacturer protocol.

Sequence of His-GST-PARP7 (Q7Z3E1 whole entry): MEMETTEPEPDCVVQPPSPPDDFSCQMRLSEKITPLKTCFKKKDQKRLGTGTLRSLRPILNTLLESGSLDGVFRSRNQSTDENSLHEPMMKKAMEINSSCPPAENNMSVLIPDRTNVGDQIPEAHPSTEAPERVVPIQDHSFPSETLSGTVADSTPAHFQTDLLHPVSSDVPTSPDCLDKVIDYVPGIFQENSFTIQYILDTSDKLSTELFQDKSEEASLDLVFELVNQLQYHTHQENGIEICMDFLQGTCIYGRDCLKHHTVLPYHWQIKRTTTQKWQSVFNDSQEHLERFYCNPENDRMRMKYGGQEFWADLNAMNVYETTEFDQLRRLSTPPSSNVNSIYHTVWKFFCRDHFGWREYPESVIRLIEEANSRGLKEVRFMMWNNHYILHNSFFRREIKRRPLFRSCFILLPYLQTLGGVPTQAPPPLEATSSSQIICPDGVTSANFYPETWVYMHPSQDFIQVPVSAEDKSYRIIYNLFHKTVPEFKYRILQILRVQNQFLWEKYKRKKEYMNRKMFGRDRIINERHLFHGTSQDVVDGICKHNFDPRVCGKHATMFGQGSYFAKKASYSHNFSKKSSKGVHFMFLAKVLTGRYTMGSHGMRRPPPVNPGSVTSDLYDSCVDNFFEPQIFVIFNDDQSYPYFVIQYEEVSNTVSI
Sequence of PARP2 (Q9UGN5 whole entry): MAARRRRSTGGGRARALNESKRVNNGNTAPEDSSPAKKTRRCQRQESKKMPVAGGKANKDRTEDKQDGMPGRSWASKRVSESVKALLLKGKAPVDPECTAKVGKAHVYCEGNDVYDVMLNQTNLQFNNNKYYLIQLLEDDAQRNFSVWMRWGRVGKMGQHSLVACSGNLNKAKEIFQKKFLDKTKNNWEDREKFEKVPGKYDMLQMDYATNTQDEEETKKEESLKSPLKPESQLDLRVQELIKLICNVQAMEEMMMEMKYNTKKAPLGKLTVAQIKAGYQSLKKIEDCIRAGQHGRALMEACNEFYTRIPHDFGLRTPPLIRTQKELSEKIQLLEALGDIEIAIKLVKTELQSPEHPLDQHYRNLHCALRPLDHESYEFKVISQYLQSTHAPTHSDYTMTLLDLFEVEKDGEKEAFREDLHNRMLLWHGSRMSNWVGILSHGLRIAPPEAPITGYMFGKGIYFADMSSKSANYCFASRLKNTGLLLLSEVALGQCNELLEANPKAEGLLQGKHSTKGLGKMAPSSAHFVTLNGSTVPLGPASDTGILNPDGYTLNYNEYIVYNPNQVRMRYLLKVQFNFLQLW
Sequence of PARP1 (P09874 whole entry, species assumed): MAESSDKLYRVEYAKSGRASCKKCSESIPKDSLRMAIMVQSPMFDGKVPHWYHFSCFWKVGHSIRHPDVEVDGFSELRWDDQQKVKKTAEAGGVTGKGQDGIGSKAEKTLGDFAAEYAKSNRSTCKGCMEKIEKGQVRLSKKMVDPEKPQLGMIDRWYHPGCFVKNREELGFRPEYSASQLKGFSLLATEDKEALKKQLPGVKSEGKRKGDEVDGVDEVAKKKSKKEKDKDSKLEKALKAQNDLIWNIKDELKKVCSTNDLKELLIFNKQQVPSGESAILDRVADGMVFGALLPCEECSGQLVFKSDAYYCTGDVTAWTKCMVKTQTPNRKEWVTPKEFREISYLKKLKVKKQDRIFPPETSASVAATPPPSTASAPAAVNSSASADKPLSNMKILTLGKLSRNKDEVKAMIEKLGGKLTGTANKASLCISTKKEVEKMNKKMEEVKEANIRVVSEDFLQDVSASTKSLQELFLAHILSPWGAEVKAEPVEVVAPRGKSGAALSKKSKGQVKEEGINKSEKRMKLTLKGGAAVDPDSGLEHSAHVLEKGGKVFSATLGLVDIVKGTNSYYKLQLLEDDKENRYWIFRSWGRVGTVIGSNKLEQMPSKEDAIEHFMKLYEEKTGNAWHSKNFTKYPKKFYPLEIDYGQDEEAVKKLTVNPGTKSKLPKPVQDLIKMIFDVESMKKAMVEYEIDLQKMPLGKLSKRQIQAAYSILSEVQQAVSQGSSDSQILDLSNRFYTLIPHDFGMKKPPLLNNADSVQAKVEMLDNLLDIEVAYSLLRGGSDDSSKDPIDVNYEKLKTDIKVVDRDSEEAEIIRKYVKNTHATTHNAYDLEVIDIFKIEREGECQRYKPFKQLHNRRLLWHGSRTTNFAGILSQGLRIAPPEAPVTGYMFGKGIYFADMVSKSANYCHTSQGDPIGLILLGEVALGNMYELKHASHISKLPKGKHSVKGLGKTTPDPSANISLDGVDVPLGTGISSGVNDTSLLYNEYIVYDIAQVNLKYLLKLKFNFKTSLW

Compound	IC50 (His-GST-PARP7)	IC50 (PARP1)	IC50 (PARP2)	GI50 [1]	GI50 [2]	STING levels (STING, pTBK1, pIRF3)	pTBK1 and pIRF3 (STING, pTBK1, pIRF3)	GI50 ([1]; Homo sapiens, NCI-H1373, 144 h)	GI50 ([2]; Homo sapiens, 144 h)	GI50 [3]	PARP7 inhibitor-induced induction of IFN-β (secreted IFN-β)
6-(4-(5-((7-cyclobutoxy-4-oxo-3,4-dihydrophthalazin-1-yl)methyl)-2-fluorobenzoyl)piperazin-1-yl)-4-methoxynicotinonitrile [Example 137]	< 50 nM	> 2000 nM	100 to 500 nM	< 100 nM	1000 to 5000 nM						
Cc1ccc2c(=O)c3cccc(CC(=O)O)c3oc2c1C [DMXAA]						decreased substantially STING levels	induced robustly both pTBK1 and pIRF3				
C#CC(C)Oc1ccc2c(=O)[nH]nc(Cc3ccc(F)c(C(=O)N4CCN(c5ccc(C#N)cn5)CC4)c3)c2c1 (centres unmarked) [Example 8, 6-(4-(5-((7-(But-3-yn-2-yloxy)-4-oxo-3,4-dihydrophthalazin-1-yl)methyl)-2-fluorobenzoyl)piperazin-1-yl)nicotinonitrile]	< 50 nM	100 to 500 nM	100 to 500 nM					< 100 nM	1000 to 5000 nM	< 100 nM	
CC#Cc1ccc2c(=O)[nH]nc(Cc3ccc(F)c(C(=O)N4CCn5c(nnc5C(F)(F)F)C4)c3)c2c1 [Example 65, 4-(4-fluoro-3-(3-(trifluoromethyl)-5,6,7,8-tetrahydro-[1,2,4]triazolo[4,3-a]pyrazine-7-carbonyl)benzyl)-6-(prop-1-yn-1-yl)phthalazin-1(2H)-one]	< 50 nM	50 to 100 nM	50 to 100 nM					100 to 1000 nM			
COc1cc2c(Cc3cccc(C(=O)N4CCN(c5ccc(C#N)cn5)CC4)c3)n[nH]c(=O)c2cc1F [Example 82, 6-(4-(3-((6-Fluoro-7-methoxy-4-oxo-3,4-dihydrophthalazin-1-yl)methyl)benzoyl)piperazin-1-yl)nicotinonitrile]	< 50 nM	< 50 nM	< 50 nM					< 100 nM	100 to 1000 nM	< 100 nM	
CC#Cc1cc(C(F)(F)F)c2c(=O)[nH]nc(Cc3ccc(F)c(C(=O)N4CCN(c5ccc(C#N)cn5)CC4)c3)c2c1 [Example 84, 6-(4-(2-Fluoro-5-((4-oxo-7-(prop-1-yn-1-yl)-5-(trifluoromethyl)-3,4-dihydrophthalazin-1-yl)methyl)benzoyl)piperazin-1-yl)nicotinonitrile]	< 50 nM	100 to 500 nM	100 to 500 nM					< 100 nM	1000 to 5000 nM	> 5000 nM	
CC#Cc1ccc2c(=O)[nH]nc(Cc3ccc(F)c(C(=O)N4CCN(c5ccc(C#N)cn5)CC4)c3)c2c1C [Example 86, 6-(4-(2-Fluoro-5-((8-methyl-4-oxo-7-(prop-1-ynyl)-3,4-dihydrophthalazin-1-yl)methyl)benzoyl)piperazin-1-yl)nicotinonitrile]	< 50 nM	50 to 100 nM	500 to 2000 nM					< 100 nM	1000 to 5000 nM	> 5000 nM	
N#Cc1ccc(N2CCN(C(=O)c3cccc(Cc4n[nH]c(=O)c5c(F)c(F)ccc45)c3)CC2)nc1 [Example 87, 6-(4-(3-((5,6-Difluoro-4-oxo-3,4-dihydrophthalazin-1-yl)methyl)benzoyl)piperazin-1-yl)nicotinonitrile]	< 50 nM	< 50 nM	< 50 nM					< 100 nM	100 to 1000 nM	100 to 1000 nM	
N#Cc1ccc(N2CCN(C(=O)c3cccc(Cc4n[nH]c(=O)c5ccc(OC6CCC6)cc45)n3)CC2)nc1 [Example 176, 6-(4-(6-((7-Cyclobutoxy-4-oxo-3,4-dihydrophthalazin-1-yl)methyl)picolinoyl)piperazin-1-yl)nicotinonitrile]	< 50 nM	50 to 100 nM	100 to 500 nM					100 to 1000 nM	> 5000 nM	1000 to 5000 nM	
N#Cc1ccc(N2CCN(C(=O)c3cncc(Cc4n[nH]c(=O)c5ccc(OC6CCC6)cc45)c3)CC2)nc1 [Example 177, 6-(4-(5-((7-Cyclobutoxy-4-oxo-3,4-dihydrophthalazin-1-yl)methyl)nicotinoyl)piperazin-1-yl)nicotinonitrile]	< 50 nM	50 to 100 nM	100 to 500 nM					< 100 nM	> 5000 nM	> 5000 nM	
N#Cc1ccc(N2CCN(C(=O)c3cc(Cc4n[nH]c(=O)c5ccc(OC6CCC6)cc45)ccn3)CC2)nc1 [Example 179, 6-(4-(4-((7-Cyclobutoxy-4-oxo-3,4-dihydrophthalazin-1-yl)methyl)picolinoyl)piperazin-1-yl)nicotinonitrile]	< 50 nM							< 100 nM	> 5000 nM	> 5000 nM	
N#Cc1ccc(N2CCN(C(=O)c3ccnc(Cc4n[nH]c(=O)c5ccc(OC6CCC6)cc45)c3)CC2)nc1 [Example 180, 6-(4-(2-((7-Cyclobutoxy-4-oxo-3,4-dihydrophthalazin-1-yl)methyl)isonicotinoyl)piperazin-1-yl)nicotinonitrile]	< 50 nM							< 100 nM	> 5000 nM	1000 to 5000 nM	
CC#Cc1ccc2c(=O)[nH]nc(CNC(C)CC(=O)N3CCN(c4ncc(C(F)(F)F)cn4)CC3)c2c1 (centres unmarked) [Example 191, 4-(((4-Oxo-4-(4-(5-(trifluoromethyl)pyrimidin-2-yl)piperazin-1-yl)butan-2-yl)amino)methyl)-6-(prop-1-yn-1-yl)phthalazin-1(2H)-one]	< 50 nM	> 2000 nM	> 2000 nM					100 to 1000 nM	1000 to 5000 nM	> 5000 nM	
CCc1ccc(NC(=O)Nc2c[nH]c3ccccc23)cc1 [Example H-151]											completely blocked
